Results: ChEMBL document CHEMBL1201862, “PubChem BioAssay data set” (2004)
The source made the active and inactive calls.

What was measured:
Cytochrome P450 2D6 = Cytochrome P450 2D6 (Homo sapiens, UniProt P10635);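 also: CYP2D6 member of a cytochrome P450 panel assay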
Cytochrome P450 3A4 = Cytochrome P450 3A4 (Homo sapiens, UniProt P08684);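 also: CYP3A4 tested as one member of a cytochrome P450 panel screen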
Cytochrome P450 2C9 = Cytochrome P450 2C9 (Homo sapiens, UniProt P11712)
Cytochrome P450 2C19 = Cytochrome P450 2C19 (Homo sapiens, UniProt P33261); assay: Cytochrome panel assay with activity outcomes. Panel member name: p450-cyp2c19 Compounds with AC50 equal or less than 10 uM are considered active; type: functional; conditions: read-out: AC50
[1] = molecular target: T1, Ubiquitin-conjugating enzyme E2 N (Homo sapiens, UniProt P61088); type: functional;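 also: Dose-response confirmation in a TR-FRET assay detecting UBC13-driven polyubiquitin chain formation, inhibition measured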
T1 sequence (P61088 whole entry): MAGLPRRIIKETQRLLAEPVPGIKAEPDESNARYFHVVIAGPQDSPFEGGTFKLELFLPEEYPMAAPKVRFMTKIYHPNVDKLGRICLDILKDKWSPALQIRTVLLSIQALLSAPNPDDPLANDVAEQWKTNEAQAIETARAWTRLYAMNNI

Cytochrome P450 1A2 = molecular target: T2, Cytochrome P450 1A2 (Homo sapiens, UniProt P05177);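 also: PubChem cytochrome P450 panel assay, CYP1A2 panel member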
T2 sequence (P05177 whole entry): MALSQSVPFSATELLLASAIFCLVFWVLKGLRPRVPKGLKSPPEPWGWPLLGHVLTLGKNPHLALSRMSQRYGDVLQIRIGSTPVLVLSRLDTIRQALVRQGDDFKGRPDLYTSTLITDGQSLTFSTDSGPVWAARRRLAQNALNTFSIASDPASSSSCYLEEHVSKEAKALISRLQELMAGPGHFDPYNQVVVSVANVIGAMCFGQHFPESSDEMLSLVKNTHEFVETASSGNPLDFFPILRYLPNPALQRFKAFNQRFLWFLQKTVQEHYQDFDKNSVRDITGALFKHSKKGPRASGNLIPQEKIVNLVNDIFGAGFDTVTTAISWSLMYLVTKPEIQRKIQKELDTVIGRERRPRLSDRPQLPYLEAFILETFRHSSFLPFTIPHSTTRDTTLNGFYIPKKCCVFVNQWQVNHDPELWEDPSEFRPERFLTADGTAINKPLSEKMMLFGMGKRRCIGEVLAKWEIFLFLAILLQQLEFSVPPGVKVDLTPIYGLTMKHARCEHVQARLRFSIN

[2] = viability of PTEN-deleted HCT116 cells – cell-based, HCT116 PTEN knockout, dose response (AID 1047); type: functional;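 also: HCT116 colon tumor cells with PTEN knocked out; cells exposed to compound for 60 hours before readout; potency for loss of cell viability measured by luminescence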
[3] = viability of HCT116 lacking mutant beta-catenin – cell-based, human colon tumor, dose response (AID 1045); type: functional;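 also: HCT116 colon tumor cells with beta catenin knocked out; cells exposed to compound for 60 hours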
[4] = molecular target: T3, Heat shock factor protein 1 (Mus musculus, UniProt P38532); assay: enhancement of HSF1-driven luciferase signal – cell-based, NIH3T3, luminescence, dose retest, confirmation (AID 435004); type: functional;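 also: stress induced by proteasome inhibitor MG132 added 30 min after compound; luciferase reporter driven by HSF1 response element in NIH3T3 cells; actives raise luminescence as potentiators of the MG132 stress response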
T3 sequence (P38532 whole entry): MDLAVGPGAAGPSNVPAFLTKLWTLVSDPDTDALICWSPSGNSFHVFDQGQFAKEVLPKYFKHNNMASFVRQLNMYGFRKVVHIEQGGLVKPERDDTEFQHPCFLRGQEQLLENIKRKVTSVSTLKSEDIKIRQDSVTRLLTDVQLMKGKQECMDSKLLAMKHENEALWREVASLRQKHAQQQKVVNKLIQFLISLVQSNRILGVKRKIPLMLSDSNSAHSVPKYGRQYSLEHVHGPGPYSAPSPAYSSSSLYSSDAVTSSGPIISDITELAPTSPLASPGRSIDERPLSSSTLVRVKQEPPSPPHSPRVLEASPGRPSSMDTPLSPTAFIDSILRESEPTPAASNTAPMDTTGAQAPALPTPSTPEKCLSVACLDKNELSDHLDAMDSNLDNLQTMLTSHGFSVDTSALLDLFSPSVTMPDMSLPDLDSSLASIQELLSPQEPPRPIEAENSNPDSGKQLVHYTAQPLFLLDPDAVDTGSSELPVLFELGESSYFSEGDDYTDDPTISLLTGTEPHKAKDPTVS

[5] = molecular target: T4, Replicative DNA helicase DnaB (Mycobacterium tuberculosis, UniProt P9WMR3); assay: DnaB intein splicing inhibitors, dose response, biochemical, cell-free fluorescence (AID 449749); type: functional
T4 sequence (P9WMR3 whole entry): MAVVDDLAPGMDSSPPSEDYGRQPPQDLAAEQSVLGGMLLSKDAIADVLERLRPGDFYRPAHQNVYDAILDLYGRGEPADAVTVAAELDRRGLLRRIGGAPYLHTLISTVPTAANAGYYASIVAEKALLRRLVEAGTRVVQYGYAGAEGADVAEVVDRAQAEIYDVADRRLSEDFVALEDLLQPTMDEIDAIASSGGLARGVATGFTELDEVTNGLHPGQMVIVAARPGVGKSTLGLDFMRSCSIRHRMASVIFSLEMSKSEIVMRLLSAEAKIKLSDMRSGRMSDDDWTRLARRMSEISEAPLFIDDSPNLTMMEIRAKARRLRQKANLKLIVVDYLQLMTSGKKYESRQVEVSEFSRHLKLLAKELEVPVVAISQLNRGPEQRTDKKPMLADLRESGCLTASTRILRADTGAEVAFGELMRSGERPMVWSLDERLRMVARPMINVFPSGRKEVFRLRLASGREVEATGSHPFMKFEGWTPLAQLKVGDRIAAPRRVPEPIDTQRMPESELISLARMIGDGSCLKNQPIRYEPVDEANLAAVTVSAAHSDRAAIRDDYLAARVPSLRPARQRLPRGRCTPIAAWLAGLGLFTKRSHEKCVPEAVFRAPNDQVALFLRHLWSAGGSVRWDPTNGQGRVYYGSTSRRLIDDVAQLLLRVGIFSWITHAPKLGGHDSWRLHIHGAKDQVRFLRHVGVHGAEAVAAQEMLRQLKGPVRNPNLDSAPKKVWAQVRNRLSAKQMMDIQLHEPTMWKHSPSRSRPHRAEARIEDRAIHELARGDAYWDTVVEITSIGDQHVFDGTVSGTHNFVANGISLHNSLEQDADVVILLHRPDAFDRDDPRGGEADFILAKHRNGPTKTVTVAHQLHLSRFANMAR

Protein RecA = molecular target: T5, Protein RecA (Mycobacterium tuberculosis, UniProt P9WHJ3); assay: Fluorescence Cell-Free Homogeneous Dose Retest to Identify Inhibitors of RecA-Intein Splicing Activity. [Related pubchem assays (depositor defined):AID2097, AID2223, AID489010, AID492950]; type: functional
T5 sequence (P9WHJ3 whole entry): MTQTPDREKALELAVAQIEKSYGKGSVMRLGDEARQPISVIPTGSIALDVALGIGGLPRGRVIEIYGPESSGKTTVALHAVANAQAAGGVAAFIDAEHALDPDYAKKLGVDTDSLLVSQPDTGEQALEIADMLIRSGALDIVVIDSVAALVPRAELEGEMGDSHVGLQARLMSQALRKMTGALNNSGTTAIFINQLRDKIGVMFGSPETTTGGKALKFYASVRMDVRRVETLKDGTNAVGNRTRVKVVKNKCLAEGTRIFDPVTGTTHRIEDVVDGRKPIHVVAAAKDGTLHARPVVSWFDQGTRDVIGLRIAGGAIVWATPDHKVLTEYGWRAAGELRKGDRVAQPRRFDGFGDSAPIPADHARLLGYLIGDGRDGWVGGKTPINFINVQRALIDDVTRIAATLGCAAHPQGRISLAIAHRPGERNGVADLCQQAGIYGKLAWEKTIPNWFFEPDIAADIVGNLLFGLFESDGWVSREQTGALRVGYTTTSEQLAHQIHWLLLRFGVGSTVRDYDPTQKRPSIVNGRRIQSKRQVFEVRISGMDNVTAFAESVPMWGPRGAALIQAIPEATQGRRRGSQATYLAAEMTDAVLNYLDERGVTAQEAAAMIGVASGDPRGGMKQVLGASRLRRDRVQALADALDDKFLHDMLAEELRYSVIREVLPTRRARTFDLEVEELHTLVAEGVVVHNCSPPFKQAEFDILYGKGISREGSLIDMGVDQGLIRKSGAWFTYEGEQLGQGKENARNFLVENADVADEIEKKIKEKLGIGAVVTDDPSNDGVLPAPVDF

cells [6] = type: functional, cell-based
cells [7] = type: functional, cell-based; remark: listed apart in the source
[8] = NIH-3T3 fibroblast cytotoxicity, dose response, cytotoxicity control, cell-based, fluorescence, Alamar Blue, secondary assay (AID 2327); type: functional;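 also: NIH-3T3 mouse fibroblasts cultured with fluconazole at 8 µg/mL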
[9] = fluconazole-exposed Candida albicans growth modulators – fluorescence, retest, confirmation (AID 2467); type: functional, cell-based
[10] = Trypanosoma cruzi growth suppression in host cells – NIH3T3 host cells, beta-gal luminescence, confirmation (AID 2044); type: functional, cell-based;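 also: intracellular parasites grown in NIH/3T3 mouse fibroblasts as host cells; luminescent beta-galactosidase reporter signal from transgenic T. cruzi replicating inside host cells; inhibitors lower the luminescence signal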
[11] = NIH3T3 cell viability loss – ATP luminescence, mouse fibroblasts, counter-screen, dose response (AID 2010); type: functional, cell-based;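 also: cells exposed to compound for about 90 hours before reading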
[12] = molecular target: Heat shock protein HSP 90-alpha (Homo sapiens, UniProt P07900); type: functional, organism-based
INS1 = assay: INS-1E survival protection against cytokine death – cell-based, luminescence, retest, dose response (AID 449756); type: functional; conditions: Rattus norvegicus;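 also: cell death triggered by IL-1 beta plus TNF-alpha plus IFN-gamma mixture; protective hits raise ATP signal compared with cytokine alone wells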
[13] = Luminescence Cell-Based Dose Retest to Confirm Inhibitors of Cancer Stem Cells. [Related pubchem assays (depositor defined):AID2717, AID2721]; type: functional; conditions: Homo sapiens

Cytochrome P450 3A4, sequence (P08684 whole entry): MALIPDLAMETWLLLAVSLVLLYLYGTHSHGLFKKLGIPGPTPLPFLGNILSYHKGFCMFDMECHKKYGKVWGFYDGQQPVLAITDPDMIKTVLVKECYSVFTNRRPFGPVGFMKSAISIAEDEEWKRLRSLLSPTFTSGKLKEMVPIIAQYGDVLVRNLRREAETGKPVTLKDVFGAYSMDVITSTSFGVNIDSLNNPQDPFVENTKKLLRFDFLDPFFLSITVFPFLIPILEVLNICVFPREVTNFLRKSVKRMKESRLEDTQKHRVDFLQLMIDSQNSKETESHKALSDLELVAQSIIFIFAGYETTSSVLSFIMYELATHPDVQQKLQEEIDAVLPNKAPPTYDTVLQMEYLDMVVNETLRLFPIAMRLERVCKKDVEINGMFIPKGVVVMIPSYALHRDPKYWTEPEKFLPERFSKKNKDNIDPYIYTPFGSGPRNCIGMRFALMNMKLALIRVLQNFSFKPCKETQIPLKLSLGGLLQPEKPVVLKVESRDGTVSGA
Cytochrome P450 2C9, sequence (P11712 whole entry): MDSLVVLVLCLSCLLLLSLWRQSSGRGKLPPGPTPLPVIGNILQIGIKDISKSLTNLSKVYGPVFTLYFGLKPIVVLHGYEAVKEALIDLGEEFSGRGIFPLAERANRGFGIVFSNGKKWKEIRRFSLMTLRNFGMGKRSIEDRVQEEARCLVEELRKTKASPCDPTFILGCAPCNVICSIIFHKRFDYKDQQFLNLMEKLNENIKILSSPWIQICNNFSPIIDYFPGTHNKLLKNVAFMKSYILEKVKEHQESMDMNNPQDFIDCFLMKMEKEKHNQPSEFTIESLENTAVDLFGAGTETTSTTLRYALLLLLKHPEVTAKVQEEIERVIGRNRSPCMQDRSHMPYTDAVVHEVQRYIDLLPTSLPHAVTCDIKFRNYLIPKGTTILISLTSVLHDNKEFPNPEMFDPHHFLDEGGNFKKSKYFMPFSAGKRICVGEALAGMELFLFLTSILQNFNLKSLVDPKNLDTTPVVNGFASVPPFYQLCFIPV
Cytochrome P450 2D6, sequence (P10635 whole entry): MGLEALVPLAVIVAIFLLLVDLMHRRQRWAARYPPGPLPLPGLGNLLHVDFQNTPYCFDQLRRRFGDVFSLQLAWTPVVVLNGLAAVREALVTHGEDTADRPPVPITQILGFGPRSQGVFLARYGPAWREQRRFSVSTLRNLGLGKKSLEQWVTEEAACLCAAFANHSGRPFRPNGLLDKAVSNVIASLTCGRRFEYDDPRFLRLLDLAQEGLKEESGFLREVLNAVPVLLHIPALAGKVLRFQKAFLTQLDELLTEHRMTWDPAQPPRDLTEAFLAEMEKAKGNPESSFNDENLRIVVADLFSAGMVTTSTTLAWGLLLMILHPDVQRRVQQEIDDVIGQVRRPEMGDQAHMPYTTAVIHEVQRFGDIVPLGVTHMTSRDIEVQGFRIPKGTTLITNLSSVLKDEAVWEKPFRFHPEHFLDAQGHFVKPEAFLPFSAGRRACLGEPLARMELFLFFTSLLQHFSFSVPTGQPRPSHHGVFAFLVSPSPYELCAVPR
Cytochrome P450 2C19, sequence (P33261 whole entry): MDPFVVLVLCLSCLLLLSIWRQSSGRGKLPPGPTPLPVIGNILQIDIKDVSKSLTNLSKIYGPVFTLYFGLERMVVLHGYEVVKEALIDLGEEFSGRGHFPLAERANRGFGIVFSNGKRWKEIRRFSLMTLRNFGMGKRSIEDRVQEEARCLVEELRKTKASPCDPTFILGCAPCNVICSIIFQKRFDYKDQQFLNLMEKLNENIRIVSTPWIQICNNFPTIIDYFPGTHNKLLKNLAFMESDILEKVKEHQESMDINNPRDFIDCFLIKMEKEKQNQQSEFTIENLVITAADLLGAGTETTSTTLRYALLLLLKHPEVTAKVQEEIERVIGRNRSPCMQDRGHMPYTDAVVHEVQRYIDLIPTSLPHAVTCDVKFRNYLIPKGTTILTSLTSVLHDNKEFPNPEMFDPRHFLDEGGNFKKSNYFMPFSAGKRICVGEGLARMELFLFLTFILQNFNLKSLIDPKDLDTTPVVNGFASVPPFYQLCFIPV

Cc1ccc(OCCCOc2cccc3cccnc23)cc1C
AC50 (Cytochrome P450 2D6): 17.8 µM (inconclusive)
AC50 (Cytochrome P450 3A4): 28.2 µM (inconclusive)
AC50 (Cytochrome P450 2C9): inconclusive

O=C(N/N=C\c1ccc2c(c1)CCC2)c1ccccc1O
AC50 (Cytochrome P450 2C19): 0.251 µM (inconclusive)
AC50 (Cytochrome P450 2D6): 5.01 µM (inconclusive)
AC50 (Cytochrome P450 2C9): inconclusive

CC[C@@H](C)[C@@H]1CN([C@@H](C)CN2CCC[C@H]2CN2C(N)=NC[C@@H]2Cc2ccccc2)C(=N)N1CCc1ccc(Cl)c(Cl)c1
IC50 [1]: > 20 µM (inactive)

O=C(C[S+]([O-])c1cccc(C(F)(F)F)c1)Nc1ccccc1Cl (stereo not given)
AC50 (Cytochrome P450 1A2): 15.8 µM (inconclusive)
AC50 (Cytochrome P450 2C9): inconclusive

Cc1cc(C(=O)c2ccc(C(C)(C)C)cc2)c(NC(=O)CCl)s1
EC50 [2]: 9.12 µM (active)
EC50 [3]: 8.47 µM (active)
EC50 [4]: 7.73 µM (active)
AC50 [5]: 7.58 µM (active)
EC50 (Protein RecA): 2.97 µM (active)

CN(C)C(=O)CSc1nc2ccccc2n1Cc1ccccc1
EC50 (cells [6]): > 350 µM (not active)
EC50 (cells [7]): > 350 µM (not active)

CN(C)S(=O)(=O)c1ccc(NC(=O)c2cc(F)c(F)cc2Cl)cc1
AC50 (Cytochrome P450 2C19): 17.8 µM (inconclusive)
AC50 (Cytochrome P450 2C9): inconclusive

COc1ccccc1CN1C(=O)c2ccncc2C1=O
AC50 (Cytochrome P450 3A4): 11.2 µM (inconclusive)
AC50 (Cytochrome P450 2C9): inconclusive

COc1ccc2c(c1[N+](=O)[O-])CCC/C2=N/OC(=O)c1ccccc1SC
AC50 (Cytochrome P450 3A4): 15.8 µM (inconclusive)
AC50 (Cytochrome P450 2C9): inconclusive

O=C(Nc1nc(-c2ccccn2)cs1)c1cc2ccccc2o1
EC50 [8]: 20.5 µM (active)
EC50 [9]: 1.49 µM (active)
EC50 [10]: 1.46 µM (active)
EC50 [11]: 9.05 µM (active)
AC50 [12]: 4.49 µM (active)

CC(C)OCCCN=C(S)N1CCC(C(=O)c2ccc(Cl)cc2)CC1
AC50 (INS1): 36.9 µM (active)

CCOc1ccc(C(=O)NC(=S)Nc2cccc(NC(=O)c3ccco3)c2)cc1[N+](=O)[O-]
EC50 (cells [6]): > 350 µM (not active)
EC50 (cells [7]): > 350 µM (not active)

Cc1cccc(NS(=O)(=O)c2ccc3c(c2)Cc2cc(S(=O)(=O)Nc4cccc(C)c4C)ccc2-3)c1C
EC50 [2]: 11 µM (active)
EC50 [3]: 10.2 µM (active)

C=C(C(=O)c1ccccc1)C(C)CC(=O)c1ccccc1 (stereo not given)
EC50 [2]: 5.17 µM (active)
EC50 [3]: 4.74 µM (active)

CC(=O)Nc1cc2c(cc1Br)OCCO2
EC50 (cells [6]): > 350 µM (not active)
EC50 (cells [7]): > 350 µM (not active)

CC(C(=O)NC1CCCC1)N(C(=O)c1snc(C(N)=O)c1N)c1ccc2c(c1)OCCO2 (stereo not given)
IC50 [1]: > 20 µM (inactive)

CCOCCCNC(=O)C1CCN(S(=O)(=O)N2CC(C)CC(C)C2)CC1 (stereo not given)
AC50 (Cytochrome P450 3A4): 15.8 µM (inconclusive)
AC50 (Cytochrome P450 2C9): inconclusive

COC(=O)c1ccccc1S(=O)(=O)N1CCC(C(=O)N2CCC2)CC1
IC50 [1]: > 20 µM (inactive)

COc1ccc(CCNc2ccc(C(CC(N)=O)NC(=O)c3ccc(Br)cc3)cc2[N+](=O)[O-])cc1 (stereo not given)
AC50 [13]: 5.51 µM (active)
AC50 (INS1): 12.9 µM (active)

NC(S)=Nc1nc2ccccc2nc1O
IC50 [1]: > 20 µM (inactive)

COC(=O)c1cc(=O)n(CCc2ccccc2F)/c(=N/c2ccc(F)c(Cl)c2)s1
AC50 (INS1): 8.13 µM (active)

COc1ccc2[nH]c(-c3cccc(N)c3)nc2c1
EC50 (cells [6]): > 350 µM (not active)
EC50 (cells [7]): 6.92 µM (active)

COc1ccc(C)c2sc(N(CCCN(C)C)C(=O)c3ccc(S(=O)(=O)N(C)C)cc3)nc12
IC50 [1]: > 20 µM (inactive)

O=S(=O)(NC1CC2CCC1C2)c1ccc(Cl)cc1 (stereo not given)
AC50 [12]: 0.538 µM (active)

O=C(O)/C=C/c1cnn(-c2ccccc2)c1
EC50 (cells [6]): > 350 µM (not active)
EC50 (cells [7]): 2.39 µM (active)
